Patent US20180280465A1 (EVER Neuro Pharma GmbH, priority 2015, published 2018)
Like-named read-outs stand apart in the source and are kept apart here.

How the values were obtained:
[1] = tested on: NIH/3T3 murine fibroblasts; test: Resazurin-fibroblast-assay for assessment of cytotoxicity
Description: The vitality of the fibroblasts was detected with the Resazurin Reagent (Resazurin sodium salt powder (Sigma Aldrich R7017-1G)). Vital and metabolically active cells reduce the non-fluorescent dye resazurin to the fluorescent dye resorufin by using NADH. The amount of fluorescence is proportional to the amount of vital cells. The fluorescence intensity at 535 nm (excitation)/595 nm (emission) is detected with a plate reader.
Cells were cultured in a culture medium (DMEM high glucose) containing 10% FBS, 2 mM L-glutamine and 100 μg/ml penicilline/streptomycin under standard cell culture conditions (37° C., 5% CO2).
The cells were then incubated with the respective solutions in the incubator for 4 h, 18 h, or 24 h (depending on the assay protocol). For every time point a separate 96-well plate was prepared. • Day 1 or 2: Readout—Determination of the fluorescence intensity (resazurin readout): For the determination of the fluorescence intensity (resazurin readout) the medium (100 μl/well) was removed and 100 μl/well resazurin was added (final concentration 0.5 mM; 2.2 ml resazurin stock solution prepared in PBS with a final concentration of 2.5 mM was diluted in 8.8 ml proliferation medium). In the wells serving for the blank control (no cells) 100 μl/well resazurin (0.5 mM) was added. The 96-well plate was then incubated for 1 h in the incubator. The fluorescence intensity was then detected at 535 nm (excitation)/595 nm (emission) with a plate reader.

[2] = cited from earlier work
[3] = in NaCl solution; cited from earlier work

O=C1O[C@H]([C@@H](O)CO)C(O)=C1O [Ascorbate, (5R)-[(1S)-1,2-dihydroxyethyl]-3,4-dihydroxyfuran-2(5H)-one]
effect on the toxic effect of oxoapomorphine [1]: had no beneficial effect if the oxidative degradation product oxo-apomorphine was already present in the formulation

N[C@@H](CCC(=O)N[C@@H](CS)C(=O)NCC(=O)O)C(=O)O [Glutathione, (2S)-2-amino-4-{[(1R)-1-[(carboxymethyl)carbamoyl]-2-sulfanylethyl]carbamoyl}butanoic acid]
effect on the toxic effect of oxoapomorphine ([1]; NIH/3T3 cells, oxoapomorphine present): could abolish the toxic effect of oxoapomorphine

CN1CCc2cccc3c2[C@H]1Cc1ccc(O)c(O)c1-3 [apomorphine, (6aR)-6-methyl-5,6,6a,7-tetrahydro-4H-dibenzo[de,g]quinoline-10,11-diol]
duration of effect (mean) ([2]; single dose): 40 min | incidence of nodule formation ([2]; subcutaneous apomorphine infusion therapy, meta analysis): 70% | patients terminating therapy because of irritations at the injection site ([2]; subcutaneous infusion, within one year): 70% | solubility [3]: < 10 mg/mL

CC(O)CO (stereo not drawn) [α-propylene glycol, propane-1,2-diol]
influence of isotonization agent on the cytotoxic effects in the cell culture system ([1]; NIH/3T3 fibroblasts): did not have any influence (negative or positive) on the cytotoxic effects
